The test concerns Rattus norvegicus. The test is described as follows: Reduction in incidence of 600 mg/kg, sc ciprofloxacin-induced cartilage lesions in vitamin E-enriched diet fed immature Wistar rat after 10 days. It counts as functional, organism-based. On the set-up: dose 600 mg/kg; scale not given: the % may be the effect or the level left. The following applies: at 600 mg/kg.

This is an account of results in ChEMBL document CHEMBL1142095, “Diminished ciprofloxacin-induced chondrotoxicity by supplementation with magnesium and vitamin E in immature rats” (Antimicrob Agents Chemother, 2007).

With VITAMIN E, the Activity stood at 41%.
